{"source": "the Kinase Knowledgebase extract (Sharma et al. 2016)", "key": {"MAPK14 [1]": {"target": "MAPK14 (UniProt Q16539)", "sequence (Q16539 whole entry, looked up)": "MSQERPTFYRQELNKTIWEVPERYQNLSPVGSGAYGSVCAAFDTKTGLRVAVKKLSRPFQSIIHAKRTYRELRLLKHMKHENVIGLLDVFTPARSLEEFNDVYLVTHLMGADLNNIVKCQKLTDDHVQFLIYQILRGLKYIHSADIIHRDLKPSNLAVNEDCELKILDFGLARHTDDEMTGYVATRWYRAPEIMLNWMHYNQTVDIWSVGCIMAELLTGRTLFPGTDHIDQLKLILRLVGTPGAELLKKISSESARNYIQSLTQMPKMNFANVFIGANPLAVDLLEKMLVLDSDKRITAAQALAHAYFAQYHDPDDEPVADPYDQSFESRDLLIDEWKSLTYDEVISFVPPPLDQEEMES", "experiment": "TNF Inhibition (In Vivo Assay)"}, "MAPK14 [2]": {"target": "MAPK14 (UniProt Q16539)", "experiment": "MAPK14 (CSBP) Binding Inhibition"}}}
{"smiles": "COc1nccc(-c2c(-c3ccc(F)cc3)ncn2[C@H]2CC[C@@](C)(O)CC2)n1.COc1nccc(-c2c(-c3ccc(F)cc3)ncn2[C@H]2CC[C@](C)(O)CC2)n1", "values": [{"measurement": "IC50", "setting": "MAPK14 [1]", "value": "< 50", "unit": "µM"}, {"measurement": "IC50", "setting": "MAPK14 [2]", "value": "< 50", "unit": "µM"}]}
{"smiles": "O=C1CCC(n2cnc(-c3ccc(F)cc3)c2-c2ccnc(O)n2)CC1", "values": [{"measurement": "IC50", "setting": "MAPK14 [2]", "value": "< 50", "unit": "µM"}]}
{"smiles": "CC(C)Oc1nccc(-c2c(-c3ccc(F)cc3)ncn2C2CCC(=O)CC2)n1", "values": [{"measurement": "IC50", "setting": "MAPK14 [1]", "value": "< 50", "unit": "µM"}, {"measurement": "IC50", "setting": "MAPK14 [2]", "value": "< 50", "unit": "µM"}]}
{"smiles": "CSc1nccc(-c2c(-c3ccc(F)cc3)ncn2[C@H]2CC[C@H](O)CC2)n1", "values": [{"measurement": "IC50", "setting": "MAPK14 [2]", "value": "< 50", "unit": "µM"}]}
{"smiles": "CC(C)Oc1nccc(-c2c(-c3ccc(F)cc3)ncn2C2CCC(O)CC2)n1", "note": "(stereo unspecified)", "values": [{"measurement": "IC50", "setting": "MAPK14 [1]", "value": "< 50", "unit": "µM"}, {"measurement": "IC50", "setting": "MAPK14 [2]", "value": "< 50", "unit": "µM"}]}
{"smiles": "COc1nccc(-c2c(-c3ccc(F)cc3)ncn2C2CCC(=O)CC2)n1", "values": [{"measurement": "IC50", "setting": "MAPK14 [1]", "value": "< 50", "unit": "µM"}, {"measurement": "IC50", "setting": "MAPK14 [2]", "value": "< 50", "unit": "µM"}]}
{"smiles": "CSc1nccc(-c2c(-c3ccc(F)cc3)ncn2C2CCC(=O)CC2)n1", "values": [{"measurement": "IC50", "setting": "MAPK14 [2]", "value": "< 50", "unit": "µM"}]}
